{
  "source": "patent US20220026439A1",
  "about": "“PARTICLE BASED SMALL MOLECULE-PROTEIN COMPLEX TRAP” (priority 2018, published 2022)",
  "key": {"[1]": {"biological_target": "FKBP12 / PPP3CA (Homo sapiens, UniProt P62942)", "sequence (P62942 whole entry, species assumed, other chains not shown)": "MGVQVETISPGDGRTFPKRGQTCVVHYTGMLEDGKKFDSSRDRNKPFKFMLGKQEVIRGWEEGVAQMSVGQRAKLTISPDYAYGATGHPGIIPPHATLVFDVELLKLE", "sequence (P63098 2-170 partner limits assumed, species assumed, other chains not shown)": "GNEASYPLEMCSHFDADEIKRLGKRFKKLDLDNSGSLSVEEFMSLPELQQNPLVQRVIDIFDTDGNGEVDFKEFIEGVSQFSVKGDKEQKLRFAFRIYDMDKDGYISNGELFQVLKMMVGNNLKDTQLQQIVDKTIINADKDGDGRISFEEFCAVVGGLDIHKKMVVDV", "assay": "ViroTrap (gag-FKBP12 bait) with LC-MS/MS: FK506-induced binding of PPP3CA (calcineurin catalytic subunit) to FKBP12", "type": "cell-based", "conditions": "HEK293T cells"}, "[2]": {"biological_target": "T1, CRBN / ASS1 (Homo sapiens, UniProt Q96SW2)", "T1 construct": "expressed in transfected cells; host or cells: HEK293T", "T1 sequence (Q96SW2 whole entry, species assumed)": "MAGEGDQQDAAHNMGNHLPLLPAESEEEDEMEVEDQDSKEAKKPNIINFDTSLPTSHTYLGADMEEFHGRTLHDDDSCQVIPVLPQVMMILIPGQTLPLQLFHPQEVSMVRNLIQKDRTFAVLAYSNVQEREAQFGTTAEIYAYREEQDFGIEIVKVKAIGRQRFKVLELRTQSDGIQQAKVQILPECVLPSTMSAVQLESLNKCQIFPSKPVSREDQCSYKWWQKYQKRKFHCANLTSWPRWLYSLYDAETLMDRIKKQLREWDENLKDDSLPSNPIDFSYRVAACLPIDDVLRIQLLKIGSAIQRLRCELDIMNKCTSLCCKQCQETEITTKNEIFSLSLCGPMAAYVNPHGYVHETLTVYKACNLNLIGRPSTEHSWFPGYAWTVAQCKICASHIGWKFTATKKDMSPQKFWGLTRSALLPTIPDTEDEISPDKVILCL", "T1 sequence (P00966 whole entry partner, species assumed)": "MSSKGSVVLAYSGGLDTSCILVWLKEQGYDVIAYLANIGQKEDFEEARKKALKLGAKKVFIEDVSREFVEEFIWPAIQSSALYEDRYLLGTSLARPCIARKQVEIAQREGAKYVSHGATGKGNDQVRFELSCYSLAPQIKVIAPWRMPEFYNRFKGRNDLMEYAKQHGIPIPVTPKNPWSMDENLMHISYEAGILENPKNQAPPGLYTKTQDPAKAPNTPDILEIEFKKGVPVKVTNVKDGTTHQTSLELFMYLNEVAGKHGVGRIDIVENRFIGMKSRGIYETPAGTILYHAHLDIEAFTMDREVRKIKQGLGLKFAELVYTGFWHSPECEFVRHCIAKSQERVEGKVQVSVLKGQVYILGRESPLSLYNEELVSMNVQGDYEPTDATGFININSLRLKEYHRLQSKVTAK", "T1 sequence (Q16531 2-1140 partner limits assumed, species assumed)": "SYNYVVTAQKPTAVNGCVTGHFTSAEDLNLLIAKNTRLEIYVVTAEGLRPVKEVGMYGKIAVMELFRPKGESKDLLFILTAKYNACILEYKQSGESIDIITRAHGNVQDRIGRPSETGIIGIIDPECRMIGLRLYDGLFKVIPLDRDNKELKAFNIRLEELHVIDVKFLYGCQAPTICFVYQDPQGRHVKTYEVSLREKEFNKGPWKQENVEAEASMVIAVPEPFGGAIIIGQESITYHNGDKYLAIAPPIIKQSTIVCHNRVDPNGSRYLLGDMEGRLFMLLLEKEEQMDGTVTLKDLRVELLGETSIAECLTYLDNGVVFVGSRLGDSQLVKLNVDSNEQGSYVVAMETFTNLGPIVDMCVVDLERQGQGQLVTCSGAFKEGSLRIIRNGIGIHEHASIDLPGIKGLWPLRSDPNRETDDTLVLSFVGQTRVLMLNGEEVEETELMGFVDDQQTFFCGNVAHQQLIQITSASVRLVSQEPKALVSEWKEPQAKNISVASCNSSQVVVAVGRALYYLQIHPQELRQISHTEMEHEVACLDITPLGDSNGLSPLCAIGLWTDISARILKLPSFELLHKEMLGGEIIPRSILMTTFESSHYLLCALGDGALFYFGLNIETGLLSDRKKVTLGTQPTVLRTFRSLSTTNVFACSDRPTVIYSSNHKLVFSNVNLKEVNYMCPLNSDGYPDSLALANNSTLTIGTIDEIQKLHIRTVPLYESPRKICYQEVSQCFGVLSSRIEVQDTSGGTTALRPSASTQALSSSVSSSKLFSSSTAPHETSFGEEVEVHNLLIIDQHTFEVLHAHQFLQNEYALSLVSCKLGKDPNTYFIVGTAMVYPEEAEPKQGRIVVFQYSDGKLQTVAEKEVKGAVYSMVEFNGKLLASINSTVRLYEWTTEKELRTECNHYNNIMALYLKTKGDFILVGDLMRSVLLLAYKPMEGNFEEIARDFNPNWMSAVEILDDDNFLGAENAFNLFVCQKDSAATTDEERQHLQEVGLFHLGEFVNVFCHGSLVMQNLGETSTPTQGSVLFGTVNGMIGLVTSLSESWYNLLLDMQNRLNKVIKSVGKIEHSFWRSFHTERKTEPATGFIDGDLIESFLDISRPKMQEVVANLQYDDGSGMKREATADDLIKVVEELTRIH", "assay": "ViroTrap (gag-CRBN bait) with LC-MS/MS: molecular glue-induced recruitment of endogenous ASS1 to CRBN in virus-like particles", "type": "cell-based", "from_the_text": "In this study we evaluated the use of ViroTrap to identify molecular glue-induced endogenous (neo)substrates of CRBN in HEK293T cells. For this purpose, we used a previously described method known as ViroTrap (Eyckerman, et al. “Trapping mammalian protein complexes in viral particles,” Nature Communications 7: 11416 (2016); Titeca, et al. “Analyzing trapped protein complexes by Virotrap and SFINX.” Nature Protocols 12.5 (2017): 881). With this method, CRBN is expressed as a fusion protein with the viral protein HIV-GAG. HIV-GAG, when expressed in cells, such as HEK293T, is capable of triggering the formation of virus-like particles that bud off the cells. In the particle, the HIV-GAG protein is oriented towards the center of the particle. […] In the event the GAG-CRBN fusion interacts with proteins inside the cells, such proteins are dragged/trapped along with GAG-CRBN into the virus-like particles. In this manner, endogenous proteins that interact with CRBN, in presence or absence of a CRBN-ligand, can be identified. This is achieved by lysis of the particle and a standard mass-spectrometry analysis of tryptic digest of the sample. Subtractive analysis will then identify proteins that are specifically associated with the particle in response to a CRBN-ligand such as a molecular glue. […] Twenty-four hours after compound addition, virus-like particles (VLPs) were isolated from the cell supernatant using anti-Flag coated magnetobeads. After elution from the beads using Flag peptide, purified VLPs were lysed, and the protein content was digested overnight with trypsin. The peptide samples were analyzed through LC-MS/MS and label-free quantification data (LFQ intensities) from triplicate samples was processed using the MaxQuant software package and a volcano plot showing p-value (resulting from a two-sided t-test corrected for multiple testing; FDR 0.05%) versus LFQ intensity fold change (FIG. 1A-C) was generated with the Perseus tool."}, "[3]": {"biological_target": "PPP3CA, a calcineurin catalytic subunit, endogenous (UniProt Q08209)", "assay": "ViroTrap: gag-FKBP12 VLPs from HEK293T cells, LC-MS/MS label-free quantification; FK506 1 µM versus DMSO control"}},
  "note": "Like-named read-outs stand apart in the source and are kept apart here.",
  "data": [
    {"compound": "C=CC[C@@H]1/C=C(\\C)C[C@H](C)C[C@H](OC)[C@H]2O[C@@](O)(C(=O)C(=O)N3CCCC[C@H]3C(=O)O[C@H](/C(C)=C/[C@@H]3CC[C@@H](O)[C@H](OC)C3)[C@H](C)[C@@H](O)CC1=O)[C@H](C)C[C@@H]2OC", "note": "[FK506, tacrolimus]", "values": [
      {"measurement": "FK506-induced enrichment of PPP3CA in gag-FKBP12 virus-like particles (result in words)", "setting": "[1]; FK506 versus DMSO", "value": "enriched for the presence of PPP3CA"},
      {"measurement": "Fold change (LFQ intensity, compound versus DMSO) of target protein PPP3CA", "setting": "[1]; bait FKBP12, 1 μM compound", "value": 9.71}
    ]},
    {"compound": "O=C1CC[C@H](N2Cc3c(OCc4ccc(CN5CCOCC5)cc4)cccc3C2=O)C(=O)N1", "note": "[CC-220]", "values": [
      {"measurement": "Compound-induced association of endogenous ASS1 with CRBN (result in words)", "setting": "[2]; HEK293T cells, 10 μM lenalidomide, 10 μM pomalidomide, 1 μM CC-220, versus DMSO", "value": "induced the association of endogenous ASS1 with CRBN"},
      {"measurement": "Fold change (LFQ intensity, compound versus DMSO) of target protein ASS1", "setting": "[2]; bait CRBN, 1 μM compound, HEK293T cells, VLPs isolated 24 h after compound addition, triplicate samples", "value": 3.31}
    ]},
    {"compound": "Nc1cccc2c1C(=O)N(C1CCC(=O)NC1=O)C2=O", "note": "(stereo not shown) [Pomalidomide, pomalidomide]", "values": [
      {"measurement": "Compound-induced association of endogenous ASS1 with CRBN (result in words)", "setting": "[2]", "value": "induced the association of endogenous ASS1 with CRBN"},
      {"measurement": "Fold change (LFQ intensity, compound versus DMSO) of target protein ASS1", "setting": "[2]", "value": 2.01}
    ]},
    {"compound": "gag-FKBP12 fusion protein (from UniProt P62942 1-108)", "values": [
      {"measurement": "Fold change (LFQ intensity, compound versus DMSO)", "setting": "[3]", "value": 9.71, "unit": "fold"}
    ]}
  ]
}
